Consider nine compounds from US11266634B2, “Methods for treating melanoma with human therapeutic agents” (Ankh Life Sciences Limited, priority 2014, dated 2022).

Test [1] has as its system human lung cancer cells (H358). In words: Lung cancer spheroid cell death test. Format: cell-based. As to conditions: 24 hour exposure to increasing doses; spheroids. As to the method:
(§1) The respective cells were individually cultured in a growth medium prepared using RPMI-1640 medium containing 11.1 mM D-glucose with 10% fetal bovine serum, 10 mM HEPES, 2 mM L-glutamine, 1 mM sodium pyruvate, 0.05 mM 2-mercaptoethanol, and Antibiotic-Antimycotic. These cells were maintained in T75 tissue culture flasks in a humidified incubator at 37° C. and 5% CO2. The media were changed on a third day after cell plating, and the cells were passaged on day 5 by trypsinization.
(§2) Custom-made micromolds with 100 μm diameter wells were loaded with the cells (U.S. Pat. No. 8,735,154, incorporated by reference herein). The media were changed every day by partial replacement. Cell aggregates were allowed to form in the micromolds for 72 hours and then were transferred to a 100 mm non-treated tissue culture dishes for 3 additional days. The spheroids were passed through 70 μm and 100 μm cell strainers (#3431751 and #43152, Corning, Tewksbury, Mass.) and maintained in HEPES Balanced Salt Solution comprised of: 20 mM HEPES, 114 mMNaCl, 4.7 mM KCl, 1.2 mM KH2PO4, 1.16 mM MgSO4, 2.5 mM CaCl2, 25.5 mM NaHCO3 and 0.2% bovine serum albumin (fatty acid free), pH 7.2.
The lymphomas treatment methods used were identical to those described in Example 2 relative to the pediatric leukemia cells, whereas the lung cancer treatment method was the same as described in Example 1.

The subject of test [2] is human ovarian cancer cells (A1847). In words: Ovarian cancer spheroid cell death test. It counts as cell-based. As to conditions: 24 hour exposure to increasing doses; spheroids. How it is done: as §1, §2
(§3) The cells were treated and tested as set forth in Example 1.

Test [3] concerns human prostate cancer cells (22rv1). In words: Prostate cancer spheroid cell death test. As to conditions: 24 hour exposure to increasing doses; spheroids. It counts as cell-based. How it is done: as §1, §2, §3
The next test concerns ovarian cancer cells. As to conditions: low doses of doxorubicin alone (up to 0.158, unit not given). How it is done:
In this test, the synergism of GZ17-6.02 with doxorubicin (a common chemotherapy drug) was tested on ovarian cancer cells. In this test, increasing doses of doxorubicin were administered to ovarian cancer spheroids and cell deaths were measured, as described in Example 1. The protocol involved testing doxorubicin alone at various dosages (FIG. 8, doxorubicin alone—closed circles), with comparative tests using the various dosages of doxorubicin in combination with either 0.2 mg/mL (FIG. 8 open circles) or 0.4 mg/mL (FIG. 8 closed triangles) GZ17-6.02. Additionally, the induced cell death results from use of 0.2 mg/mL GZ17-6.02 alone (FIG. 8, line A) and 0.4 mg/mL GZ17-6.02 alone (FIG. 8, line B) were determined.

The structures appear in SMILES notation.

In the case of `COc1cccc(C=O)c1O` [O -vanillin], the “cell death (number of live cells)” value in test [1], in test [2] and in test [3] was “demonstrated anticancer effects” each time.
For the compound `COc1cccc2c1C(=O)c1c(O)c3c(c(O)c1C2=O)C[C@@](O)(C(=O)CO)C[C@@H]3O[C@H]1C[C@H](N)[C@H](O)[C@H](C)O1` [doxorubicin], the “cell death, doxorubicin alone” value in the test with ovarian cancer cells is “ineffective”.
For `COc1ccc2c3c([nH]c2c1)C(C)=NCC3` [harmaline], the “cell death (number of live cells)” value in test [1], in test [2] and in test [3] was “demonstrated anticancer effects” in each case.
As to `CC1=NCCc2c1[nH]c1cc(O)ccc21.Cl` [harmalol hydrochloride], the “cell death (number of live cells)” value in test [1], in test [2] and in test [3] was “demonstrated anticancer effects” each time.
`Cc1nccc2c1[nH]c1cc(O)ccc12.Cl` [harmole hydrochloride]: the “cell death (number of live cells)” value in test [1], in test [2] and in test [3] was “demonstrated anticancer effects” in each case.
In the case of `COc1ccc(C(=O)O)cc1O` [isovanillic acid], the “cell death (number of live cells)” value in test [1], in test [2] and in test [3] was “demonstrated anticancer effects” in each case.
For `COc1ccc(CO)cc1O` [isovanillyl alcohol], the “cell death (number of live cells)” value in test [1], in test [2] and in test [3] was “demonstrated anticancer effects” each time.
With `COc1ccc2c3c([nH]c2c1)[C@@H](C)NCC3` [tetrahydro-harmine], the “cell death (number of live cells)” value in test [1], in test [2] and in test [3] was “demonstrated anticancer effects” throughout.
As for `COc1cc(C=O)ccc1O` [vanillin], the “cell death (number of live cells)” value in test [1], in test [2] and in test [3] was “demonstrated anticancer effects” in each case.
